Measured values as given in ChEMBL document CHEMBL1667742, “Angiotensin II receptor type 1 (AT1) selective nonpeptidic antagonists--a perspective” (Bioorg Med Chem, 2010).
Where a chain is given by its changes, count along the chain named.

Assays:
[1] = molecular target: T1, Type-1 angiotensin II receptor (Oryctolagus cuniculus) (UniProt P34976); test: (§1) Antagonist activity at angiotensin AT1 receptor in rabbit aorta; type: functional, tissue-based
T1 sequence (whole entry): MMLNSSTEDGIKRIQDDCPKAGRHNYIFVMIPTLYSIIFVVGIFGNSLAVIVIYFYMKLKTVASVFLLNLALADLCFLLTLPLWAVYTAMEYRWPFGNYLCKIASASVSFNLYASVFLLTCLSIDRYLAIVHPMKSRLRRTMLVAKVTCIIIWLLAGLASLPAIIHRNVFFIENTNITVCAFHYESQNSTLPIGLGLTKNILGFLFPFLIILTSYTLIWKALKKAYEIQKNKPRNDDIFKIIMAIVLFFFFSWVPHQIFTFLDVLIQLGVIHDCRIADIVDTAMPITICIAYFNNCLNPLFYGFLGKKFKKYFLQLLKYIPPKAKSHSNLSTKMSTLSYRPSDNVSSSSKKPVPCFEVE

[2] = system: Rattus norvegicus; test: Antihypertensive activity in renal hypertensive rat model assessed as reduction of mean arterial blood pressure at 30 mg/kg, po; type: functional, Artery; parameters: scale not given: the % may be the effect or the level left
[3] = system: Rattus norvegicus; test: Antihypertensive activity in renal hypertensive rat model assessed as reduction of mean arterial blood pressure at 10 mg/kg, po; type: functional, Artery; parameters: scale not given: the % may be the effect or the level left
[4] = system: Rhesus monkey; test: Antihypertensive activity in salt depleted normotensive monkey model assessed as reduction of blood pressure at 10 mg/kg, po; type: functional, Macaca mulatta; parameters: scale not given: the % may be the effect or the level left
[5] = Oral bioavailability in rat; type: ADME, organism-based; conditions: in vivo
[6] = species on record: Rattus norvegicus; test: Antihypertensive activity in renal hypertensive rat model assessed as reduction of blood pressure; type: functional
[7] = molecular target: T2, Type-1 angiotensin II receptor (Oryctolagus cuniculus, UniProt P34976); test: Antagonist activity at angiotensin AT1 receptor in rabbit aortic strip assessed as inhibition of angiotensin 2-induced contractile response; type: functional; conditions: read-out: pA2 (converted)
T2 sequence (P34976 whole entry): T1 sequence (whole entry)

[8] = Binding affinity to angiotensin AT1 receptor in bovine adrenal cortex membranes
[9] = molecular target: T3, Type-1 angiotensin II receptor (Cavia porcellus, UniProt Q9WV26); test: Antagonist activity at angiotensin AT1 receptor in guinea pig ileum; type: functional, tissue-based; conditions: read-out: pA2 (converted)
T3 sequence (Q9WV26 whole entry): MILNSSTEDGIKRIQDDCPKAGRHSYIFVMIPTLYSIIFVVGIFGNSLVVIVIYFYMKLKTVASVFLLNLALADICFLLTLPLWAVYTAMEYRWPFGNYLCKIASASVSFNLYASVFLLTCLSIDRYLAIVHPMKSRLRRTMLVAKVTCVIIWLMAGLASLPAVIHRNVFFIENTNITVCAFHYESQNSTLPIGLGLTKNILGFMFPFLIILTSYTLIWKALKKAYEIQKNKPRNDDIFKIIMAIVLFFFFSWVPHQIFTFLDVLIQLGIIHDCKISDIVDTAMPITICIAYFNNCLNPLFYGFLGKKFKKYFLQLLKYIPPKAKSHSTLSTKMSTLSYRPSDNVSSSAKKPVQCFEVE

[10] = molecular target: T2, Type-1 angiotensin II receptor; test: as §1; type: functional, tissue-based
[11] = Binding affinity to angiotensin AT1 receptor in rat cortical membranes; type: cell membranes
[12] = Half life in rat; type: ADME, organism-based; conditions: in vivo
[13] = species on record: Rattus norvegicus; test: (§2) Antagonist activity at angiotensin AT1 receptor in rat liver membranes; type: functional, cell membranes; conditions: Membrane
[14] = system: Rattus norvegicus; test: Antihypertensive activity in furosemide-treated sodium depleted rat model assessed as reduction of blood pressure at 10 mg/kg, po; type: functional
[15] = system: Rattus norvegicus; test: Antihypertensive activity in furosemide-treated sodium depleted rat model assessed as reduction of blood pressure at 3 mg/kg, po; type: functional
[16] = system: Rattus norvegicus; test: Antihypertensive activity in po dosed renal hypertensive rat model assessed as reduction of angiotensin 2-induced blood pressure up to 24 hrs; type: functional
[17] = as §2; type: functional, cell membranes, Membrane
[18] = system: Rattus norvegicus; test: Antihypertensive activity in po dosed conscious goldblatt hypertensive rat model assessed as reduction of angiotensin 2-induced mean arterial blood pressure; type: functional; conditions: Artery
[19] = molecular target: T4, Type-1 angiotensin II receptor (Bos taurus) (UniProt P25104); test: Binding affinity to angiotensin AT1 receptor in bovine adrenal cortex membranes; type: cell membranes; conditions: Membrane
T4 sequence (whole entry): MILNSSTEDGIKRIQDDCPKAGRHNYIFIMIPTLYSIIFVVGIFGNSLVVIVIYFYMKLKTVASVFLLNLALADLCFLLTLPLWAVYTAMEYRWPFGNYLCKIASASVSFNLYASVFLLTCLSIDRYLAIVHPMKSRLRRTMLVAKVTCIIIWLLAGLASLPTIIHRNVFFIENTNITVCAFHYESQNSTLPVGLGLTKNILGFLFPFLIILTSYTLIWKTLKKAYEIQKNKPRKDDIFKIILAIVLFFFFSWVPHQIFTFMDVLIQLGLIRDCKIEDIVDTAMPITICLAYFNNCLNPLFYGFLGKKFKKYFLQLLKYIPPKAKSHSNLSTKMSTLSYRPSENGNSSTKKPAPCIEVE

[20] = Displacement of radiolabeled angiotensin2 from angiotensin AT1 receptor in rat adrenal cortex membranes; type: cell membranes, Membrane
[21] = Displacement of radiolabeled angiotensin2 from angiotensin AT1 receptor in rat vascular smooth muscle
[22] = system: Rattus norvegicus; test: Antihypertensive activity in iv dosed renal hypertensive rat model; type: functional; conditions: read-out: ED50
[23] = system: Rattus norvegicus; test: Antihypertensive activity in po dosed renal hypertensive rat model; type: functional; conditions: read-out: ED50
[24] = Antagonist activity at angiotensin AT1 receptor in rat adrenal cortical membranes; type: functional, cell membranes
[25] = Binding affinity to angiotensin AT1 receptor in rat liver membranes; type: cell membranes, Membrane
[26] = Antagonist activity at angiotensin AT1 receptor in rat kidney homogenates; type: functional, tissue-based
[27] = molecular target: T5, Type-1 angiotensin II receptor (Homo sapiens) (UniProt P30556); test: Binding affinity to angiotensin AT1 receptor
T5 sequence (whole entry): T1 sequence (whole entry) with M2I, A49V, V254I, V270I, H272R, K311R, S349T, V353A

[28] = Antagonist activity at angiotensin AT1 receptor in rat mesenteric artery; type: functional

SMILES: CCCCc1ncc(/C=C2/C(=O)N(CCCC)C(=O)N2Cc2csc(C)n2)n1Cc1ccc(C(=O)OC)cc1
- Activity [1]: 3.8 nM
- Activity [2]: 40%
- Activity [3]: 25%
- Activity [4]: 27%

SMILES: CCc1nc2c(C)cc(C)nc2n1Cc1ccc2nc(-c3ccccc3NS(=O)(=O)C(F)(F)F)ccc2c1 [GA0113]
- bioavailability [5]: 94%
- ED25 [6]: 0.015 mg/kg

SMILES: CCc1nc2c(C)cc(C)nc2n1Cc1ccc2c(c1)C(Cc1nnn[nH]1)c1ccccc1-2 (centres undefined)
- Kb [7]: 0.631 nM
- IC50 [8]: 11 nM

SMILES: CCCc1nc2cc(C(=O)OC)[nH]c2n1Cc1ccc(-c2ccccc2C(=O)O)cc1
- Kb [9]: 15.8 nM

SMILES: CCCCc1nc2ccn(CC(=O)N(C)C)c(=O)c2n1Cc1ccc(-c2ccccc2-c2nnn[nH]2)cc1
- IC50 [10]: 0.2 nM
- IC50 [11]: 0.7 nM

SMILES: CCc1nc2c(C)cc(C)nc2n1Cc1cccc([C@@H](c2ccccc2)[C@@H](C)C(=O)O)c1
- bioavailability [5]: 91%
- half-life [12]: 9.1 h
- Activity [13]: 0.069 µM
- Activity [14]: 39 mmHg
- Activity [15]: 24 mmHg

SMILES: CCc1cc2c(c(CC)n1)CCC(=O)N2Cc1ccc(-c2ccccc2-c2nnn[nH]2)cc1
- ED50 [16]: 3 mg/kg

SMILES: Cc1nc(C)c2c(n1)N(Cc1ccc(-c3ccccc3-c3nnn[nH]3)cc1)C(=O)CC2 [TASOSARTAN]
- IC50 [17]: 5.2 nM
- ED50 [18]: 0.58 mg/kg

SMILES: CCCCc1nc(Cl)c(CO)n1Cc1ccc(-c2ccccc2-c2nnn[nH]2)cc1 [LOSARTAN]
- Activity [19]: 11.6 nM
- IC50 [20]: 19 nM
- IC50 [21]: 20 nM
- ED50 [22]: 0.78 mg/kg
- ED50 [23]: 0.59 mg/kg
- IC50 [24]: 0.82 nM
- IC50 [25]: 6.7 nM
- pA2 [26]: 7.8

SMILES: CCCCc1nc2c(n1Cc1ccc(-c3ccccc3-c3nnn[nH]3)cc1)C(=O)N1C3CCC(CC3)N1C2
- pKb [27]: 10.6
- IC50 [28]: 1.3 nM
